From patent US11161856B2 (H. Lundbeck A/S, priority 2017, dated 2021)

Tests used:
MGLL = molecular target: T1, MGLL (Mus musculus, UniProt O35678); test: In vitro competitive activity-based protein profiling, mouse brain proteome (MGLL); type: biochemical; conditions: concentration not given (μM)
T1 construct: Brain; from tissue; host or cells: mouse brain proteome
T1 sequence (O35678 1-303): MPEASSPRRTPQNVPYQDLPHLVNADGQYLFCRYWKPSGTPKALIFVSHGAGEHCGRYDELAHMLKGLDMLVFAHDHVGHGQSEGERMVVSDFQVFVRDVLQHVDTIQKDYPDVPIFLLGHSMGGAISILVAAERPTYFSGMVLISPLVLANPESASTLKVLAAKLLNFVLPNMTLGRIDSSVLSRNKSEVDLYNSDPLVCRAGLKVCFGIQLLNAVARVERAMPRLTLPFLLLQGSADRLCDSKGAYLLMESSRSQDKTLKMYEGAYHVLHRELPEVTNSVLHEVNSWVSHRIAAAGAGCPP

ABHD6 = molecular target: T2, ABHD6 (Mus musculus, UniProt Q8R2Y0); test: In vitro competitive activity-based protein profiling, mouse brain proteome (ABHD6); type: biochemical; conditions: mouse brain proteome; concentration not given (μM)
T2 construct: Brain; from tissue; host or cells: mouse brain proteome
T2 sequence (Q8R2Y0 1-336): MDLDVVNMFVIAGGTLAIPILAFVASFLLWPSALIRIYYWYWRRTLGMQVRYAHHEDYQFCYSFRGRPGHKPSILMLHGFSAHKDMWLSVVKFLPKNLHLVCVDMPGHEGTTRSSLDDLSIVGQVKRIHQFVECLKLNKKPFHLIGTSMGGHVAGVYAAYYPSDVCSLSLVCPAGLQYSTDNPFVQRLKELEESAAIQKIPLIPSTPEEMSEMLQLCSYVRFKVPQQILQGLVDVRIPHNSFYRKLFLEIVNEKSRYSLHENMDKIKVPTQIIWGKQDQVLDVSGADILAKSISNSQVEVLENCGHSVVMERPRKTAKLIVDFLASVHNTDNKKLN
Method: [The source words this procedure for another target and reports this target under the same test.] In Vitro Competitive Activity-Based Protein Profiling.
Proteomes (human prefrontal cortex or cell membrane fractions) (50 μL, 1.0 mg/mL total protein concentration) were preincubated with varying concentrations of inhibitors at 37° C. After 30 min, FP-Rh or HT-01 (1.0 μL, 50 μM in DMSO) was added and the mixture was incubated for another 30 min at room temperature. Reactions were quenched with SDS loading buffer (15 μL-4×) and run on SDS-PAGE.

Row | Structure (SMILES) | % Inh MGLL Brain (Mouse, μM) (MGLL) | % Inh ABHD6 Brain (Mouse, μM) (ABHD6)
1 | Cc1cc(-c2ccccc2)ccc1CN1CC2(CCN(C(=O)OC(C(F)(F)F)C(F)(F)F)CC2)C1 [Example 68, 1,1,1,3,3,3-Hexafluoropropan-2-yl 2-((3-methyl-[1,1'-biphenyl]-4-yl)methyl)-2,7-diazaspiro[3,5]nonane-7-carboxylate] | ### (### is ≥75%) | ### (### is ≥75%)
2 | O=C(OC(C(F)(F)F)C(F)(F)F)N1CCC2(CC1)CN(Cc1ccc(C(F)(F)F)cc1)C2 [Example 69, 1,1,1,3,3,3-Hexafluoropropan-2-yl 2-(4-(trifluoromethyl)benzyl)-2,7-diazaspiro[3,5]nonane-7-carboxylate] | ### (### is ≥75%) | ### (### is ≥75%)
3 | O=C(OC(C(F)(F)F)C(F)(F)F)N1CC2(CCN(Cc3ccc(N4CCOCC4)cc3Cl)CC2)C1 [Example 70, 1,1,1,3,3,3-Hexafluoropropan-2-yl 7-(2-chloro-4-morpholinobenzyl)-2,7-diazaspiro[3.5]nonane-2-carboxylate] | ### (### is ≥75%) | ### (### is ≥75%)
4 | Cc1cc(N2CCOCC2)ccc1CN1CCC2(CC1)CN(C(=O)OC(C(F)(F)F)C(F)(F)F)C2 [Example 71, 1,1,1,3,3,3-Hexafluoropropan-2-yl 7-(2-methyl-4-morpholinobenzyl)-2,7-diazaspiro[3.5]nonane-2-carboxylate] | ### (### is ≥75%) | ### (### is ≥75%)
5 | CN(Cc1ccc(C(F)(F)F)cc1N1CCCC1)C1(C)CCN(C(=O)OC(C(F)(F)F)C(F)(F)F)CC1 [Example 72, 1,1,1,3,3,3-Hexafluoropropan-2-yl 4-methyl-4-(methyl(2-(pyrrolidin-1-yl)-4-(trifluoromethyl)benzyl)amino) piperidine-1-carboxylate] | ### (### is ≥75%) | # (# is ≤25%)
6 | O=C(OC(C(F)(F)F)C(F)(F)F)N1CCC2(CC1)CN(Cc1ccc(CN3CCOCC3)cc1)C2 [Example 73, 1,1,1,3,3,3-Hexafluoropropan-2-yl 2-(4-(morpholinomethyl)benzyl)-2,7-diazaspiro[3.5]nonane-7-carboxylate] | ### (### is ≥75%) | ### (### is ≥75%)
7 | O=C(O)C1CCN(c2ccc(CN3CC4(CCN(C(=O)OC(C(F)(F)F)C(F)(F)F)CC4)C3)cc2)CC1 [Example 74, 1-(4-((7-(((1,1,1,3,3,3-Hexafluoropropan-2-yl)oxy)carbonyl)-2,7-diazaspiro[3.5]nonan-2-yl)methyl)phenyl)piperidine-4-carboxylic acid] | # (# is ≤25%) | ### (### is ≥75%)
8 | O=C(OC(C(F)(F)F)C(F)(F)F)N1CC2(CCN(Cc3ccc(Cl)cc3)CC2)C1 [Example 75, 1,1,1,3,3,3-Hexafluoropropan-2-yl 7-(4-chlorobenzyl)-2,7-diazaspiro[3.5]nonane-2-carboxylate] | ### (### is ≥75%) | ### (### is ≥75%)
9 | CN(Cc1cc(N2CCCC2)cc(C(F)(F)F)c1)C1(C)CCN(C(=O)OC(C(F)(F)F)C(F)(F)F)CC1 [Example 76, 1,1,1,3,3,3-Hexafluoropropan-2-yl 4-methyl-4-(methyl(3-(pyrrolidin-1-yl)-5-(trifluoromethyl)bcnzyl)amino) piperidine-1-carboxylate] | ### (### is ≥75%) | # (# is ≤25%)
10 | O=C(OC(C(F)(F)F)C(F)(F)F)N1CC2(CCN(Cc3cccc(N4CCCC4)c3)CC2)C1 [Example 77, 1,1,1,3,3,3-Hexafluoropropan-2-yl 7-(3-(pyrrolidin-1-yl)benzyl)-2,7-diazaspiro[3.5]nonane-2-carboxylate] | ## (## is between 25 and 75%) | ### (### is ≥75%)
11 | O=C(OC(C(F)(F)F)C(F)(F)F)N1CCC2(CC1)CN(Cc1cccc(Oc3ccccc3)c1)C2 [Example 78, 1,1,1,3,3,3-Hexafluoropropan-2-yl 2-(3-phenoxybenzyl)-2,7-diazaspiro[3.5]nonane-7-carboxylate] | ### (### is ≥75%) | ### (### is ≥75%)
12 | O=C(OC(C(F)(F)F)C(F)(F)F)N1CCC2(CC1)CN(Cc1ccc(N3CCOCC3)cc1Cl)C2 [Example 79, 1,1,1,3,3,3-Hexafluoropropan-2-yl 2-(2-chloro-4-morpholinobenzyl)-2,7-diazaspiro[3.5]nonane-7-carboxylate] | ### (### is ≥75%) | ### (### is ≥75%)
13 | O=C(OC(C(F)(F)F)C(F)(F)F)N1CCC2(CC1)CN(Cc1ccc(N3CCCC3)cc1)C2 [Example 80, 1,1,1,3,3,3-Hexafluoropropan-2-yl 2-(4-(pyrrolidin-1-yl)benzyl)-2,7-diazaspiro[3.5]nonane-7-carboxylate] | ### (### is ≥75%) | # (# is ≤25%)
14 | O=C(OC(C(F)(F)F)C(F)(F)F)N1CCC2(CC1)CN(Cc1ccc(N3CCOCC3)cc1)C2 [Example 81, 1,1,1,3,3,3-Hexafluoropropan-2-yl 2-(4-morpholinobenzyl)-2,7-diazaspiro[3.5]nonane-7-carboxylate] | ### (### is ≥75%) | ### (### is ≥75%)
15 | Cc1cc(N2CCOCC2)ccc1CN1CC2(CCN(C(=O)OC(C(F)(F)F)C(F)(F)F)CC2)C1 [Example 82, 1,1,1,3,3,3-Hexafluoropropan-2-yl 2-(2-methyl-4-morpholinobenzyl)-2,7-diazaspiro[3.5]nonane-7-carboxylate] | ### (### is ≥75%) | ### (### is ≥75%)
16 | Cc1ccc(CN2CC3(CCN(C(=O)OC(C(F)(F)F)C(F)(F)F)CC3)C2)cc1 [Example 84, 1,1,1,3,3,3-Hexafluoropropan-2-yl 2-(4-methylbenzyl)-2,7-diazaspiro[3.5]nonane-7-carboxylate] | ### (### is ≥75%) | ### (### is ≥75%)
17 | COc1ccc(CN2CC3(CCN(C(=O)OC(C(F)(F)F)C(F)(F)F)CC3)C2)cc1 [Example 85, 1,1,1,3,3,3-Hexafluoropropan-2-yl 2-(4-methoxybenzyl)-2,7-diazaspiro[3.5]nonane-7-carboxylate] | ### (### is ≥75%) | ### (### is ≥75%)
18 | Cc1cccc(CN2CC3(CCN(C(=O)OC(C(F)(F)F)C(F)(F)F)CC3)C2)c1 [Example 86, 1,1,1,3,3,3-Hexafluoropropan-2-yl 2-(3-methylbenzyl)-2,7-diazaspiro[3.5]nonane-7-carboxylate] | ### (### is ≥75%) | ### (### is ≥75%)
19 | COc1cccc(CN2CC3(CCN(C(=O)OC(C(F)(F)F)C(F)(F)F)CC3)C2)c1 [Example 87, 1,1,1,3,3,3-Hexafluoropropan-2-yl 2-(3-methoxybenzyl)-2,7-diazaspiro[3.5]nonane-7-carboxylate] | ### (### is ≥75%) | ### (### is ≥75%)
20 | O=C(OC(C(F)(F)F)C(F)(F)F)N1CCC2(CC1)CN(Cc1ccccc1N1CCCC1)C2 [Example 88, 1,1,1,3,3,3-Hexafluoropropan-2-yl 2-(2-(pyrrolidin-1-yl)benzyl)-2,7-diazaspiro[3.5]nonane-7-carboxylate] | ### (### is ≥75%) | ### (### is ≥75%)
